{"source": "paper PMC3499629", "about": "(Journal of medicinal chemistry, 2012)", "biological_target": "Gag' (GST-Gag) (Human immunodeficiency virus type 1 group M subtype B, UniProt P12493)", "assay_type": "binding, HIV-1", "settings": "DSF validation", "note": "Entries after “also recorded” stand apart in the source; their conditions may differ.", "data": [{"compound": "C=C(C)[C@@H]1CC[C@]2(C(=O)O)CC[C@]3(C)[C@H](CC[C@@H]4[C@@]5(C)CC[C@H](OC(=O)CC(C)(C)C(=O)O)C(C)(C)[C@@H]5CC[C@]43C)[C@@H]12", "note": "[Bevirimat]", "values": [{"measurement": "thermal stability (Tm) of Gag' in complex", "value": "increased the thermal stability; also recorded: higher melting temperature"}]}]}
